Common to all, as to format: binding
The target in experiment [1] is human STING (HAQ) (Homo sapiens, UniProt Q86WV6, G230A/H232R/R293Q). Nature of the experiment: Surface plasmon resonance (SPR), STING (HAQ). The conditions noted are these: biotinylated STING on streptavidin chip, 8° C. How it is done:
(§1) Biophysical experiments were performed with three different recombinant human STING protein variants designated according to allelic nomenclature of Yi et al., (2013). Codon optimized DNA sequences (for expression in Escherichia coli) encoding amino acid residues 149 to 345 (Swiss Prot Q86WV6) of human STING (WT), human STING (HAQ) and human STING (R232H) were synthesised by GenScript USA Inc (Piscataway, New Jersey, USA). These were ligated into a modified pET43a E. coli expression vector designed to encode N-terminal His tag followed by tobacco etch virus protease (TEV) cleavage site and a STING gene sequence. The resulting protein sequences for the three allelic variants are listed below:
(§2) Binding interactions of ligands with STING proteins were quantified using Surface Plasmon Resonance (SPR) with a minimally biotinylated STING protein immobilized on a streptavidin chip surface. […] Minimal biotinylation of purified huSTING proteins was performed using a previously described methodology (Chhabra 2012). Briefly, approximately 20 nmol of recombinant STING protein in 1×TBS buffer (25 mM Tris-HCl, pH 7.5, 150 mM NaCl, 5 mM DTT) was mixed with of EZ-Link™ Sulfo-NHS-LC-LC-Biotin (Thermofisher Scientific, cat #21338) at a molar ratio of 1 to 0.6 and incubated on ice for 2 hours. To remove any unreacted biotin reagent, protein/biotin mixture was passed through a Superdex 75 (10/300 GL) column equilibrated with 10 mM HEPES, pH7.4, 150 mM NaCl, 5 mM DTT, 5%[v/v] glycerol. A protein peak containing biotinylated huSTING protein was collected and stored in aliquots at −80° C.
Streptavidin was simultaneously immobilized in all four channels of a CM5 sensor chip docked in a Biacore instrument (either Biacore S200 or Biacore T200, GE Healthcare) as described previously (Zender 2013). […]
All binding experiments were performed at 8° C. in SPR binding buffer. To determine binding affinity, compound interaction with immobilized STING protein was analysed using dose-response experiments. […]
(Surface plasmon resonance follows binding to a sensor surface in real time, without labels.)

The next experiment concerns the target human STING (WT) (Homo sapiens (Human), UniProt Q86WV6, H232R). Nature of the experiment: Surface plasmon resonance (SPR), STING (WT). The conditions noted are these: biotinylated STING on streptavidin chip, 8° C. How it is done: as §1, §2
Streptavidin was simultaneously immobilized in all four channels of a CM5 sensor chip docked in a Biacore instrument (either Biacore S200 or Biacore T200, GE Healthcare) as described previously (Zender 2013). Minimally biotinylated STING protein was captured onto a streptavidin coated chip surface at 8° C. in SPR binding buffer (50 mM HEPES, pH 7.4, 150 mM NaCl, 2%[v/v] DMSO) by gradually injecting in a single channel at a constant flow-rate of 2 μL/min until desired capture level was achieved, typically 3000 to 7000 RU (1 RU=1 pg/mm^2).
All binding experiments were performed at 8° C. in SPR binding buffer. To determine binding affinity, compound interaction with immobilized STING protein was analysed using dose-response experiments. Fresh 10 mM DMSO solutions of compound were diluted directly into SPR binding buffer typically to a concentration of 50 μM and then further diluted 2-fold or 3-fold aiming for either a 5- or 7-point concentration series range. Each ligand concentration series was injected at a constant flow rate of 60 μL/min with a 90 second association and a 180 second dissociation time. These were modified for compounds with longer residence times, so that curves could reach steady-state, or so that compound would be fully dissociated before the subsequent injection.
Scrubber 2 (www.biologic.com.au) was utilized for data processing, where signals were referenced against the blank surface (streptavidin+D-biotin) and further corrected for DMSO refractive index change and then “double-referenced” using a buffer-blank injection (Papalia 2006). Responses were fitted to either a 1:1 steady-state affinity model or a 1:1 kinetic model (that included a mass-transport component), available within Scrubber.

The test system of experiment [2] is human STING (HAQ). Nature of the experiment: Differential scanning fluorimetry (DSF), huSTING (HAQ). Particulars: 2 μM protein, compound 100 μM; Tm with ligand minus Tm of protein alone (1% DMSO). An outline of the steps:
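Recombinant His-TEV-tagged human STING allelic variants expressed in E. coli and purified by IMAC. Thermal unfolding followed by dye fluorescence (excitation 490 nm, emission 570 nm) from 20° C. to 100° C. in 0.5° C. steps, in triplicate, with and without ligand; Tm taken from the transition inflection point.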
(DSF heats the sample and reads unfolding from a dye or from intrinsic fluorescence.)

In general, Kd refers to the equilibrium constant for the complex coming apart. Read a low Kd as higher affinity.

Chain of human STING (WT) (Q86WV6 other isoform, or with tags, fused parts or gaps, stated change not applied): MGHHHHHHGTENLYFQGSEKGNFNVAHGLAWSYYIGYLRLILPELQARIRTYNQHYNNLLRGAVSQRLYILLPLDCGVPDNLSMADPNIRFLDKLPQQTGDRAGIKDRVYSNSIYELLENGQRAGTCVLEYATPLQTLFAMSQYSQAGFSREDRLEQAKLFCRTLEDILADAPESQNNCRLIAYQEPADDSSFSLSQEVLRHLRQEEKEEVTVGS
Chain of human STING (HAQ) (Homo sapiens, UniProt Q86WV6, G230A/H232R/R293Q) (Q86WV6 whole entry G230A/H232R/R293Q, looked up, the tested form may be a part): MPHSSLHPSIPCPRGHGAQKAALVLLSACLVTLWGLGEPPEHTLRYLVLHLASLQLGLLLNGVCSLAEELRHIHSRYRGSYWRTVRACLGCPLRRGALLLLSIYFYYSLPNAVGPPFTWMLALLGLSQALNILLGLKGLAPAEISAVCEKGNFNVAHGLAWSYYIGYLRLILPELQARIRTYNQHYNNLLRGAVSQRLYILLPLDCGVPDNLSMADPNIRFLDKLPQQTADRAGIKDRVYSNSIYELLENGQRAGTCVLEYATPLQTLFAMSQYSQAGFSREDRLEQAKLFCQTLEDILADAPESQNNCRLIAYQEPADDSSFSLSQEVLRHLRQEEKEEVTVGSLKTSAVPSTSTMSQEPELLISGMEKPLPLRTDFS

Turning to `COc1c(C(N)=O)ccc2c1nc(-c1ccc(C(F)(F)F)cc1C(=O)O)n2CCn1c(-c2ccc(C(F)(F)F)cc2C(=O)O)nc2c(OC)c(C(N)=O)ccc21` [Example 38, 6,6′-(Ethane-1,2-diylbis(5-carbamoyl-4-methoxy-1H-benzo[d]imidazole-1,2-diyl))bis(3-(trifluoromethyl)benzoic acid)], the Kd on human STING (HAQ) [1] and at human STING (WT) was greater than 100 µM each time.
For `NC(=O)c1ccc2c(c1)nc(-c1c(Br)cccc1C(=O)O)n2CCn1c(-c2c(Br)cccc2C(=O)O)nc2cc(C(N)=O)ccc21` (single isomer, unassigned) [Example 29.1, 2,2′-(Ethane-1,2-diylbis(5-carbamoyl-1H-benzo[d]imidazole-1,2-diyl))bis(3-bromobenzoic acid)], the “DSF huSTING (HAQ) ΔTm (° C.)” value in the experiment with human STING (HAQ) [2] was 7.46 °C. For the same compound, binding on human STING (WT) was put at a Kd of 33 µM.
Compound `COc1c(C(N)=O)ccc2c1nc(-c1ccc(Cl)c(Cl)c1-c1nn[nH]n1)n2CCn1c(-c2ccc(Cl)c(Cl)c2-c2nn[nH]n2)nc2c(OC)c(C(N)=O)ccc21` [Example 37, 1,1′-(Ethane-1,2-diyl)bis(2-(3,4-dichloro-2-(2H-tetrazol-5-yl)phenyl)-4-methoxy-1H-benzo[d]imidazole-5-carboxamide)] showed a Kd on human STING (HAQ) [1] of 0.2 µM.
Take `NC(=O)c1ccc2c(c1)nc(-c1cc(Br)ccc1C(=O)O)n2CCn1c(-c2cc(Br)ccc2C(=O)O)nc2cc(C(N)=O)ccc21` [Example 3, 2,2′-(Ethane-1,2-diylbis(5-carbamoyl-1H-benzo[d]imidazole-1,2-diyl))bis(4-bromobenzoic acid)]: the Kd on human STING (HAQ) [1] is greater than 10 µM; on human STING (WT), 700 µM.
For `COc1c(C(N)=O)ccc2c1nc(-c1ccc(Cl)cc1C(=O)O)n2C/C=C/Cn1c(-c2ccc(Cl)cc2C(=O)O)nc2c(OC)c(C(N)=O)ccc21` [Example 34, (E)-6,6′-(But-2-ene-1,4-diylbis(5-carbamoyl-4-methoxy-1H-benzo[d]imidazole-1,2-diyl))bis(3-chlorobenzoic acid)], at human STING (WT), the affinity, expressed as Kd, was 74 µM.
`COc1c(C(N)=O)ccc2c1nc(-c1c(I)cccc1C(=O)O)n2CCn1c(-c2c(I)cccc2C(=O)O)nc2c(OC)c(C(N)=O)ccc21` (single isomer, unassigned) [Example 19.1, 2,2′-(Ethane-1,2-diylbis(5-carbamoyl-4-methoxy-1H-benzo[d]imidazole-1,2-diyl))bis(3-iodobenzoic acid)] showed a dissociation constant Kd at human STING (WT) of 0.034 µM.
In the case of `COc1c(C(N)=O)ccc2c1nc(-c1c(F)cccc1-c1nn[nH]n1)n2CCn1c(-c2c(F)cccc2-c2nn[nH]n2)nc2c(OC)c(C(N)=O)ccc21` [Example 48, 1,1′-(Ethane-1,2-diyl)bis(2-(2-fluoro-6-(2H-tetrazol-5-yl)phenyl)-4-methoxy-1H-benzo[d]imidazole-5-carboxamide)], the dissociation constant Kd at human STING (WT) came to 0.512 µM.
With `COc1c(C(N)=O)ccc2c1nc(-c1c(Cl)cccc1-c1nn[nH]n1)n2CCn1c(-c2c(Cl)cccc2-c2nn[nH]n2)nc2c(OC)c(C(N)=O)ccc21` (single isomer, unassigned) [Example 23, 1,1′-(Ethane-1,2-diyl)bis(2-(2-chloro-6-(2H-tetrazol-5-yl)phenyl)-4-methoxy-1H-benzo[d]imidazole-5-carboxamide)], at human STING (WT), binding was put at a Kd of 0.043 µM.
In turn, `CCc1ccc(-c2nc3c(OC)c(C(N)=O)ccc3n2CCn2c(-c3ccc(CC)cc3C(=O)O)nc3c(OC)c(C(N)=O)ccc32)c(C(=O)O)c1` [Example 33, 6,6′-(Ethane-1,2-diylbis(5-carbamoyl-4-methoxy-1H-benzo[d]imidazole-1,2-diyl))bis(3-ethylbenzoic acid)] showed a Kd on human STING (WT) of 107 µM.
`COc1c(C(N)=O)ccc2c1nc(-c1ccc(Cl)cc1-c1n[nH]c(=O)o1)n2CCn1c(-c2ccc(Cl)cc2-c2n[nH]c(=O)o2)nc2c(OC)c(C(N)=O)ccc21` [Example 17, 1,1′-(Ethane-1,2-diyl)bis(2-(4-chloro-2-(5-oxo-4,5-dihydro-1,3,4-oxadiazol-2-yl)phenyl)-4-methoxy-1H-benzo[d]imidazole-5-carboxamide)]: the Kd on human STING (WT) stood at 9.5 µM.
On the same count and under the same terms, under `COc1c(C(N)=O)ccc2c1nc(-c1cnccc1C(=O)O)n2CCn1c(-c2cnccc2C(=O)O)nc2c(OC)c(C(N)=O)ccc21` [Example 30, 3,3′-(Ethane-1,2-diylbis(5-carbamoyl-4-methoxy-1H-benzo[d]imidazole-1,2-diyl))diisonicotinic acid] stands 126 µM; under `COc1c(C(N)=O)ccc2c1nc(-c1cccc(Br)c1C(=O)O)n2CCn1c(-c2cccc(Br)c2C(=O)O)nc2c(OC)c(C(N)=O)ccc21` [Example 36, 6,6′-(Ethane-1,2-diylbis(5-carbamoyl-4-methoxy-1H-benzo[d]imidazole-1,2-diyl))bis(2-bromobenzoic acid)], 58 µM.
On human STING (WT), `COc1c(C(N)=O)ccc2c1nc(-c1ccc(Cl)cc1-c1nn[nH]n1)n2CCn1c(-c2ccc(Cl)cc2-c2nn[nH]n2)nc2c(OC)c(C(N)=O)ccc21` [Example 9, 1,1′-(Ethane-1,2-diyl)bis(2-(4-chloro-2-(2H-tetrazol-5-yl)phenyl)-4-methoxy-1H-benzo[d]imidazole-5-carboxamide)] had a Kd of 40 µM.
As to `COc1c(C(N)=O)ccc2c1nc(-c1c(F)cc(Cl)cc1-c1nn[nH]n1)n2CCn1c(-c2c(F)cc(Cl)cc2-c2nn[nH]n2)nc2c(OC)c(C(N)=O)ccc21` [Example 46, 1,1′-(Ethane-1,2-diyl)bis(2-(4-chloro-2-fluoro-6-(2H-tetrazol-5-yl)phenyl)-4-methoxy-1H-benzo[d]imidazole-5-carboxamide)], the Kd at human STING (WT) is 0.413 µM.
Still for that read-out and setting: the same measure for `COc1c(C(N)=O)ccc2c1nc(-c1c(F)cccc1-c1n[nH]c(=O)o1)n2CCn1c(-c2c(F)cccc2-c2n[nH]c(=O)o2)nc2c(OC)c(C(N)=O)ccc21` [Example 49, 1,1′-(Ethane-1,2-diyl)bis(2-(2-fluoro-6-(5-oxo-4,5-dihydro-1,3,4-oxadiazol-2-yl)phenyl)-4-methoxy-1H-benzo[d]imidazole-5-carboxamide)]: 0.755 µM; for `COc1c(C(N)=O)cc(F)c2c1nc(-c1ccc(Cl)cc1C(=O)O)n2CCn1c(-c2ccc(Cl)cc2C(=O)O)nc2c(OC)c(C(N)=O)cc(F)c21` [Example 20, 6,6′-(Ethane-1,2-diylbis(5-carbamoyl-7-fluoro-4-methoxy-1H-benzo[d]imidazole-1,2-diyl))bis(3-chlorobenzoic acid)]: 96 µM.
With `COc1c(C(N)=O)ccc2c1nc(-c1ncc(Cl)cc1C(=O)O)n2CCn1c(-c2ncc(Cl)cc2C(=O)O)nc2c(OC)c(C(N)=O)ccc21` [Example 31, 2,2′-(Ethane-1,2-diylbis(5-carbamoyl-4-methoxy-1H-benzo[d]imidazole-1,2-diyl))bis(5-chloronicotinic acid)], on human STING (WT), binding was characterised by a dissociation constant (Kd) of 88 µM.
Turning to `COc1c(C(N)=O)ccc2c1nc(-c1c(F)cc(F)cc1-c1n[nH]c(=O)o1)n2CCn1c(-c2c(F)cc(F)cc2-c2n[nH]c(=O)o2)nc2c(OC)c(C(N)=O)ccc21` [Example 44, 1,1′-(Ethane-1,2-diyl)bis(2-(2,4-difluoro-6-(5-oxo-4,5-dihydro-1,3,4-oxadiazol-2-yl)phenyl)-4-methoxy-1H-benzo[d]imidazole-5-carboxamide)], binding on human STING (WT) was characterised by a dissociation constant (Kd) of 11.1 µM.
The same measure, in the same setting: the same measure for `NC(=O)c1ccc2c(c1)nc(-c1ccccc1-c1nn[nH]n1)n2CCn1c(-c2ccccc2-c2nnn[nH]2)nc2cc(C(N)=O)ccc21` [Example 5, 2-(2-(1H-Tetrazol-5-yl)phenyl)-1-(2-(2-(2-(2H-tetrazol-5-yl)phenyl)-5-carbamoyl-1H-benzo[d]imidazol-1-yl)ethyl)-1H-benzo[d]imidazole-5-carboxamide]: 30 µM.

These data come from US12415785B2, “Compound modulators of sting” (CTXT PTY LTD, priority 2019, dated 2025).
